Data from PubChem BioAssay (NCI).
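Briefly, cells in 96-well plates were exposed to five compound concentrations for 48 h, and endpoints were estimated by linear interpolation. GI50 = concentration required for 50% inhibition of growth. TGI: total growth inhibition.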

Legend:
Experiment in all cases: DTP human tumour cell line panel, 48 h
MALME-3M melanoma = tested on: MALME-3M melanoma
K-562 leukemia = tested on: K-562 leukemia
ACHN renal = tested on: ACHN renal
RPMI-8226 leukemia = tested on: RPMI-8226 leukemia
OVCAR-3 ovarian = tested on: OVCAR-3 ovarian
OVCAR-5 ovarian = tested on: OVCAR-5 ovarian
HCT-116 colon = tested on: HCT-116 colon
LOX IMVI melanoma = tested on: LOX IMVI melanoma
A549 NSCLC = tested on: A549 NSCLC
SNB-19 CNS = tested on: SNB-19 CNS

Compound	GI50 (MALME-3M melanoma) [µM]	TGI (MALME-3M melanoma) [µM]	GI50 (K-562 leukemia) [µM]	TGI (K-562 leukemia) [µM]	GI50 (ACHN renal) [µM]	TGI (ACHN renal) [µM]	GI50 (RPMI-8226 leukemia) [µM]	TGI (RPMI-8226 leukemia) [µM]	GI50 (OVCAR-3 ovarian) [µM]	TGI (OVCAR-3 ovarian) [µM]	GI50 (OVCAR-5 ovarian) [µM]	TGI (OVCAR-5 ovarian) [µM]	GI50 (HCT-116 colon) [µM]	TGI (HCT-116 colon) [µM]	GI50 (LOX IMVI melanoma) [µM]	TGI (LOX IMVI melanoma) [µM]	GI50 (A549 NSCLC) [µM]	TGI (A549 NSCLC) [µM]	GI50 (SNB-19 CNS) [µM]	TGI (SNB-19 CNS) [µM]
COC(=O)c1c[nH]c2cc(OC(C)C)c(OC(C)C)cc2c1=O	> 100	> 100	> 100	> 100	> 100	> 100	> 100	> 100	> 100	> 100	> 100	> 100	> 100	> 100	> 100	> 100	> 100	> 100	> 100	> 100
Cn1[nH]cc2ccc3nc4ccccc4c(=O)c3c21		68.7		> 100		98.6		67.6		> 100		92.8		> 100		46.5		> 66		> 100
